Laboratory results published in PubChem BioAssay (NCI).
Where “and” joins values, the source holds several entries; their conditions need not be identical. Identical values can stand only once.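 Tested at 5 concentrations; 48 h exposure; 96-well plates; endpoints linearly interpolated, else capped at highest concentration. At the GI50, growth is halved. The concentration for full growth arrest is given as TGI.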

Legend:
Assay in all cases: NCI-60 cell line screen, 48 h
HS 578T breast = system: HS 578T breast
NCI-H460 lung = system: NCI-H460 lung
OVCAR-8 ovarian = system: OVCAR-8 ovarian
HCC-2998 colon = system: HCC-2998 colon
TK-10 renal = system: TK-10 renal
K-562 leukemia = system: K-562 leukemia
SNB-75 CNS = system: SNB-75 CNS
RXF 393 renal = system: RXF 393 renal
RPMI-8226 leukemia = system: RPMI-8226 leukemia
M14 melanoma = system: M14 melanoma

Structure (SMILES) | GI50 (HS 578T breast) | TGI (HS 578T breast) | GI50 (NCI-H460 lung) | TGI (NCI-H460 lung) | GI50 (OVCAR-8 ovarian) | TGI (OVCAR-8 ovarian) | GI50 (HCC-2998 colon) | TGI (HCC-2998 colon) [µM] | GI50 (TK-10 renal) | TGI (TK-10 renal) | GI50 (K-562 leukemia) | TGI (K-562 leukemia) | GI50 (SNB-75 CNS) | TGI (SNB-75 CNS) | GI50 (RXF 393 renal) | TGI (RXF 393 renal) | GI50 (RPMI-8226 leukemia) | TGI (RPMI-8226 leukemia) | GI50 (M14 melanoma) | TGI (M14 melanoma)
Cc1cc(O)ccc1C1=NN(c2ccc(S(N)(=O)=O)cc2)C(=O)CC1 | 6.64 µM and 60.5 µM | 43.9 µM and > 100 µM | 2.19 µM and 6.16 µM | 50 µM and > 100 µM | 15.4 µM and 46.2 µM | 50 µM and > 100 µM | > 50 µM and 63.9 µM | > 100 | > 50 µM and 15.9 µM | > 50 µM and 52.7 µM | 3 µM and 2.68 µM | 50 µM and > 100 µM | 2.95 µM and 16.3 µM | 21.5 µM and 82.9 µM | 6.31 µM and 13.7 µM | 50 µM and 42.1 µM | 2.35 µM and 2.76 µM | 50 µM and 23.6 µM | 2.55 µM and 4.48 µM | 50 µM and 81.4 µM
CC1=CC(=O)N(c2cccc3c(N4C(=O)C=C(C)C4=O)cccc23)C1=O | 18.6 µM | > 100 µM | 19.5 µM | 47.7 µM | 3.36 µM | 16.5 µM | 18.4 µM | 34.3 | 3.1 µM | 7.83 µM | 1.9 µM | 9.45 µM | 28.1 µM | > 100 µM | 1.96 µM | 4.4 µM | 3.71 µM | 19 µM | 3.9 µM | 19.5 µM
Cc1ccc(/C=N/NC(=O)c2ccccc2Oc2ccccc2)o1 | 46.9 µM | > 100 µM | 44.4 µM | > 100 µM | 39 µM | > 100 µM | 65.3 µM | > 100 | 71.6 µM | > 100 µM | 33.8 µM | > 100 µM | 12.8 µM | > 100 µM | 35.6 µM | > 100 µM | 23.8 µM | > 88.4 µM | 40.5 µM | > 100 µM
COc1ccc(Cn2cc(COc3cc(/C=C/C(=O)c4cc(OC)c(OC)c(OC)c4)ccc3OC)nn2)cc1 | 7.88 µM | > 100 µM | 4.39 µM | 40.4 µM | 3.06 µM | > 100 µM | 3.9 µM | > 100 | 3.7 µM | 26.3 µM | 3.13 µM | > 100 µM | – | – | 2.29 µM | 6.88 µM | 2.58 µM | 29.6 µM | 5.6 µM | > 100 µM
N#C/C(=C\c1cc(O)c(O)c(O)c1)C(N)=O | – | > 100 µM | – | > 100 µM | – | > 100 µM | – | > 100 | – | > 100 µM | – | > 100 µM | – | > 100 µM | – | > 100 µM | – | > 100 µM | – | > 100 µM
CN1CCN(CCCNC(=O)c2c3c(n4ccccc24)C(=O)c2ncccc2C3=O)CC1 | 5.32 µM | 51.8 µM | 0.316 µM | 1.75 µM | 0.888 µM | 5.99 µM | 1.04 µM | 4.07 | 5.13 µM | 40.9 µM | 1.39 µM | > 32.4 µM | 3.92 µM | 16.3 µM | 1.52 µM | 10.4 µM | 3.02 µM | > 24.4 µM | 1.21 µM | 2.6 µM
